# According to patent US11130766B2, “Deuterated thienopiperidine derivatives, manufacturing method, and application thereof” (JIANGSU TASLY DIYI PHARMACEUTICAL CO., LTD., priority 2015, dated 2021):
# Where two headings read alike, the source gives them in different places. Marks after values point to notes of the source that are not given here.
# Columns and labels:
# Rat Tail Bleeding Model = tested on: Rat Tail Bleeding Model
# Experimental: genus, strain SD rat, • Provider: Slac • Weight: 250-350 g • Sex: male • Animal number: 30
# Experimental Method: • The animals were allowed adapt to the environment after arrival for 1 week and fasted for 16 hours prior to the experiment. • The tail bleeding time started to be recorded 2 h after oral administration of the test compounds and 4 h after oral administration of clopidogrel. • The rats were anesthetized with pentobarbital sodium (50 mg/kg, ip) 10 min prior to the recording of the tail bleeding time, after the rat was completely anesthetized and reaching the detection time, the tail was cut at 1.3 mm from the rat tail-tip with a scissor and perpendicularly immerged into a saline at 37° C. Timing recording was not started until the blood flow appeared. • The timing recording was stopped when the bleeding time interval was longer than 20 seconds. The maximum observation time for the blood flow was set for 40 minutes. If it was longer than 40 minutes, the timing recording was stopped and the time was recorded as 40 minutes.
# [1] = tested on: Rat Arteriovenous Thrombus Loop Model
# Description: genus, strain: SD rat, • Provider: Slac • Weight: 250-350 g • Sex: male • Animal number: 30
# Apparatus and Materials • Swab, dry tampon, alcohol pad, anerdian tampon. • Surgical scissor, ophthalmic forceps, hemostatic forceps, microsurgical scissor, microsurgical forceps, artery clamps. • 3-0 surgical suture, thick PE tube (I.D.*O.D.=1.14 mm*1.63 mm, 8 cm long), think PE tube (I.D.*O.D.=0.72 mm*1.22 mm, 6 cm long). • Surgical board, binding rope, timer, precise electronic balance, weighing paper. • Syringe, normal saline.
# 7. Experimental Method • After arrival, the animals were let adapt to the environment for 1 week and fasted for 16 hours prior to the test. • The arteriovenous blood loop circulation was started 2 h after oral administration of the test compounds and 4 h after oral administration of clopidogrel. • The rats were anesthetized with pentobarbital sodium (50 mg/kg, ip) 15 min before the arteriovenous blood loop circulation was started. • The left external jugular vein and the right carotid artery were separated and inserted with thin PE tubes respectively. • Two PE tubes were connected with another thick PE tube with a length of 8 cm to form a circulation passage. There's a 6 cm surgical suture (3-0) in the thick PE tube. • 15 min after the circulation passage was opened, the blood flow was blocked, the filament was taken out and weighed after the blood was sucked out. The thrombus weight was obtained after subtraction of the weight of the filament itself.
# [2] = tested on: ADP induced platelet aggregation; assay: ADP induced platelet aggregation, maximum aggregation rate after administration to rats; assay type: in vivo, Wistar male rats; set-up: unit not given here; details: 3 mg/kg
# Experimental: Addition of small dose of ADP (concentration less than 0.9 μmol/L) into the platelet suspension could lead to rapid platelet aggregation, followed by quick disaggregation; if moderate dose of ADP (about 1.0 μmol/L) was added, then the second irreversible aggregation phase appeared not long after the end of the first aggregation phase and the disaggregation. The maximum aggregation rate of the irreversible aggregation phase was used to evaluate the effect of the test samples on the function of blood coagulation.
# Animals: Wistar male rats, weighing 230-250 g, were purchased from Vital River Laboratory Animal Technology Co., Ltd.
# Reagent: ADP, Sigma Corporation.
# Test samples: 16 test samples were provided by the Tasly Group; referred to China patent application 201310428052.4 for manufacturing method of TSC-1˜4 and TSC-6˜9.
# Dose of administration: the test samples were suspended with 0.25% CMC, administered 3 mg/kg weight, volume of administration: 2 mL.
# 2 Hours after administration, the rats were anesthetized with pentobarbital sodium, and blood was drawn from the abdominal aorta, anticoagulated with sodium citrate with a ratio of 1:9, and centrifuged to obtain the platelet-rich plasma and platelet-poor plasma, with the mixed ratio of the platelet-poor plasma to platelet-rich plasma=3:1.
# esterase [3] = details: for sample test results (concentration) Mean / sample test results (concentration) Num. 1 / sample test results (concentration) Num. 2 / sample test results (concentration) Num. 3: rat whole blood, 37° C., 30 μg/mL
# Experimental: The hydrolysis rates of formula TSD-6 and clopidogrel bisulfate in the rat whole blood were determined by employing the in vitro incubation method.
# 3 mL of the rat fresh whole blood was taken and placed in a glass test tube. 30 μg/mL of formula TSD-6 and clopidogrel bisulfate (prepared with saline) were added, with 3 parallel tests for each group. The test tubes were shocked at a constant temperature of 37° C., 100 μL of the mixture was taken out at fixed time points of 10 min, 20 min, 30 min, 40 min, 50 min, 60 min, 70 min, 80 min, 90 min, 100 min, 110 min, and 120 min, into which 900 μL of methanol was added to stop the reaction immediately, then 100 μL methanol/water (1:1, v/v) and 100 μL internal standard (diazepam, 100 ng/mL) were added sequentially. The mixture was centrifuged at 13000 rpm at low temperature for 10 min, the supernatant was transferred into another EP tube, and 20 μL of the supernatant was taken for sample injection.
# esterase [4] = assay: Esterase hydrolysis rates of TSD-8 and clopidogrel bisulfate, in vitro incubation in rat whole blood; assay type: in vitro ADME; set-up: sample test results (concentration) Num. 1 / sample test results (concentration) Num. 2 / sample test results (concentration) Num. 3 / sample test results (concentration) Mean: unit not given here; details: for sample test results (concentration) Mean / sample test results (concentration) Num. 1 / sample test results (concentration) Num. 2 / sample test results (concentration) Num. 3: rat whole blood, 37° C., 30 μg/mL
# [5] = SD rat, 1.0 mg/kg oral gavage, 2 h after administration
# [6] = SD rat, 1.0 mg/kg oral gavage, 2 h after administration, 15 min circulation
# [7] = ADP induced, rats, blood drawn 2 hours after administration
smiles,measurement,setting,value
[2H]C([2H])([2H])OC(=O)[C@H](c1ccccc1Cl)N1CCc2sc(OC(C)=O)cc2C1 [I-1],Tail Bleeding Time,Rat Tail Bleeding Model; [5],950 s
same,Thrombus,[1]; [6],25.6 mg
COC(=O)[C@H](c1ccccc1Cl)N1CCc2sc(OP(=O)(O)O)cc2C1 [TSC-6],Maximum Platelet Aggregation Rate,"[2]; rat, in vivo",29.6 ± 5.33
same,Tail Bleeding Time,Rat Tail Bleeding Model; [5],635 s
same,Thrombus (mg),[1]; [6],31.4* mg
[2H]C([2H])([2H])OC(=O)[C@H](c1ccccc1Cl)N1CCc2sc(OP(=O)(OC)OC)cc2C1 [TSD-1],Maximum Platelet Aggregation Rate,[2]; [7],35.6 ± 3.35
[2H]C([2H])([2H])OC(=O)[C@H](c1ccccc1Cl)N1CCc2sc(OP(=O)(OCC)OCC)cc2C1 [TSD-2],Maximum Platelet Aggregation Rate,[2]; [7],32.7 ± 5.33
[2H]C([2H])([2H])OC(=O)[C@H](c1ccccc1Cl)N1CCc2sc(OP(=O)(OC(C)C)OC(C)C)cc2C1 [TSD-3],Maximum Platelet Aggregation Rate,[2]; [7],28.4 ± 3.27
[2H]C([2H])([2H])OC(=O)[C@H](c1ccccc1Cl)N1CCc2sc(OP(=O)(Oc3ccccc3)Oc3ccccc3)cc2C1 [TSD-4],Maximum Platelet Aggregation Rate,[2]; [7],36.2 ± 4.16
[2H]C([2H])([2H])OC(=O)[C@H](c1ccccc1Cl)N1CCc2sc(OP(=O)(O)O)cc2C1 [TSD-6],Maximum Platelet Aggregation Rate,"[2]; rat, in vivo",17.4 ± 5.13
same,hydrolysis rate in the rat whole blood,"esterase [3]; compared with clopidogrel, FIG. 2",significantly slower than that of clopidogrel
same,sample test results (concentration) Mean,esterase [3]; 10 min,389.7
same,sample test results (concentration) Num. 1,esterase [3]; 10 min,486
same,sample test results (concentration) Num. 2,esterase [3]; 10 min,287
same,sample test results (concentration) Num. 3,esterase [3]; 10 min,396
same,sample test results (concentration) Mean,esterase [3]; 20 min,315.3
same,sample test results (concentration) Num. 1,esterase [3]; 20 min,306
same,sample test results (concentration) Num. 2,esterase [3]; 20 min,345
same,sample test results (concentration) Num. 3,esterase [3]; 20 min,295
same,sample test results (concentration) Mean,esterase [3]; 30 min,244.3
same,sample test results (concentration) Num. 1,esterase [3]; 30 min,246
same,sample test results (concentration) Num. 2,esterase [3]; 30 min,223
same,sample test results (concentration) Num. 3,esterase [3]; 30 min,264
same,sample test results (concentration) Mean,esterase [3]; 40 min,217.7
same,sample test results (concentration) Num. 1,esterase [3]; 40 min,232
same,sample test results (concentration) Num. 2,esterase [3]; 40 min,213
same,sample test results (concentration) Num. 3,esterase [3]; 40 min,208
same,sample test results (concentration) Mean,esterase [3]; 50 min,172.0
same,sample test results (concentration) Num. 1,esterase [3]; 50 min,196
same,sample test results (concentration) Num. 2,esterase [3]; 50 min,153
same,sample test results (concentration) Num. 3,esterase [3]; 50 min,167
same,sample test results (concentration) Mean,esterase [3]; 60 min,132.3
same,sample test results (concentration) Num. 1,esterase [3]; 60 min,115
same,sample test results (concentration) Num. 2,esterase [3]; 60 min,134
same,sample test results (concentration) Num. 3,esterase [3]; 60 min,148
same,sample test results (concentration) Mean,esterase [3]; 90 min,97.50
same,sample test results (concentration) Num. 1,esterase [3]; 90 min,85.3
same,sample test results (concentration) Num. 2,esterase [3]; 90 min,112
same,sample test results (concentration) Num. 3,esterase [3]; 90 min,95.2
same,sample test results (concentration) Mean,esterase [3]; 100 min,72.57
same,sample test results (concentration) Num. 1,esterase [3]; 100 min,84.7
same,sample test results (concentration) Num. 2,esterase [3]; 100 min,71.8
same,sample test results (concentration) Num. 3,esterase [3]; 100 min,61.2
same,sample test results (concentration) Mean,esterase [3]; 110 min,54.63
same,sample test results (concentration) Num. 1,esterase [3]; 110 min,48.1
same,sample test results (concentration) Num. 2,esterase [3]; 110 min,59.1
same,sample test results (concentration) Num. 3,esterase [3]; 110 min,56.7
same,sample test results (concentration) Mean,esterase [3]; 120 min,25.83
same,sample test results (concentration) Num. 1,esterase [3]; 120 min,24.5
same,sample test results (concentration) Num. 2,esterase [3]; 120 min,28.4
same,sample test results (concentration) Num. 3,esterase [3]; 120 min,24.6
same,Tail Bleeding Time (s),Rat Tail Bleeding Model; [5],1331* s
same,anticoagulant effect (tail bleeding time),"Rat Tail Bleeding Model; rat tail bleeding model, 1 mg/kg oral",much better than that of the non-deuterated compound TSC-6 and analog I-1
same,Thrombus (mg),[1]; [6],18.4* mg
same,weight of the thrombus formed,"[1]; rat arteriovenous thrombus loop model, 1 mg/kg oral",much lower than that of the non-deuterated compound TSC-6 and analog I-1
[2H]C([2H])([2H])OC(=O)[C@H](c1ccccc1Cl)N1CCc2sc(OCOP(=O)(OC(C)(C)C)OC(C)(C)C)cc2C1 [TSD-7],Maximum Platelet Aggregation Rate,[2]; [7],27.1 ± 6.21
[2H]C([2H])([2H])OC(=O)[C@H](c1ccccc1Cl)N1CCc2sc(OCOP(=O)(O)O)cc2C1 [TSD-8],Maximum Platelet Aggregation Rate,[2]; [7],16.3 ± 4.16
same,hydrolysis rate in the rat whole blood,"esterase [4]; compared with clopidogrel, FIG. 1",slower than that of clopidogrel
same,sample test results (concentration) Mean,esterase [4]; 10 min,391.50
same,sample test results (concentration) Num. 1,esterase [4]; 10 min,531
same,sample test results (concentration) Num. 2,esterase [4]; 10 min,252
same,sample test results (concentration) Mean,esterase [4]; 20 min,290.00
same,sample test results (concentration) Num. 1,esterase [4]; 20 min,336
same,sample test results (concentration) Num. 2,esterase [4]; 20 min,242
same,sample test results (concentration) Num. 3,esterase [4]; 20 min,292
same,sample test results (concentration) Mean,esterase [4]; 30 min,275.33
same,sample test results (concentration) Num. 1,esterase [4]; 30 min,255
same,sample test results (concentration) Num. 2,esterase [4]; 30 min,291
same,sample test results (concentration) Num. 3,esterase [4]; 30 min,280
same,sample test results (concentration) Mean,esterase [4]; 40 min,223.00
same,sample test results (concentration) Num. 1,esterase [4]; 40 min,222
same,sample test results (concentration) Num. 2,esterase [4]; 40 min,219
same,sample test results (concentration) Num. 3,esterase [4]; 40 min,228
same,sample test results (concentration) Mean,esterase [4]; 50 min,101.67
same,sample test results (concentration) Num. 1,esterase [4]; 50 min,112
same,sample test results (concentration) Num. 2,esterase [4]; 50 min,103
same,sample test results (concentration) Num. 3,esterase [4]; 50 min,90
same,sample test results (concentration) Mean,esterase [4]; 60 min,112.00
same,sample test results (concentration) Num. 1,esterase [4]; 60 min,115
same,sample test results (concentration) Num. 2,esterase [4]; 60 min,123
same,sample test results (concentration) Num. 3,esterase [4]; 60 min,98
same,sample test results (concentration) Mean,esterase [4]; 90 min,74.63
same,sample test results (concentration) Num. 1,esterase [4]; 90 min,76.3
same,sample test results (concentration) Num. 2,esterase [4]; 90 min,77.4
same,sample test results (concentration) Num. 3,esterase [4]; 90 min,70.2
same,sample test results (concentration) Mean,esterase [4]; 100 min,55.40
same,sample test results (concentration) Num. 1,esterase [4]; 100 min,52.7
same,sample test results (concentration) Num. 2,esterase [4]; 100 min,63.2
same,sample test results (concentration) Num. 3,esterase [4]; 100 min,50.3
same,sample test results (concentration) Mean,esterase [4]; 110 min,47.90
same,sample test results (concentration) Num. 1,esterase [4]; 110 min,45.7
same,sample test results (concentration) Num. 2,esterase [4]; 110 min,51.5
same,sample test results (concentration) Num. 3,esterase [4]; 110 min,46.5
same,sample test results (concentration) Mean,esterase [4]; 120 min,34.90
same,sample test results (concentration) Num. 1,esterase [4]; 120 min,34.3
same,sample test results (concentration) Num. 2,esterase [4]; 120 min,38.7
same,sample test results (concentration) Num. 3,esterase [4]; 120 min,31.7
"CC(=O)Oc1cc2c(s1)CCN(C(C(=O)C1CC1)c1ccccc1F)C2 (centres unmarked) [prasugrel, reference compound]",Maximum Platelet Aggregation Rate,[2]; [7],20.72 ± 8.84
